In the supplement of paper PMC11208160:

Test: recombinant UMI read abundance after kanamycin selection (control-corrected) (log10(CPM+1)); higher = more efficient recombination; extreme values may be limits of the assay; sequences stand for … in AGTGCAGAGAAAATCGGCCAGTTTTCTCTGCCTGCAGTCCGCATGCCGTGGGACCCCTTGGGTTCTAACCTGTTGCCTAGATTTATGCAGCGGACTGCCTTTCTCCCAAAGTGATAAACCGG…AGGTTGGTTTCACT; site = the 11-nt donor
Summary of the method: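 The measure is log10(CPM+1) for recombinant UMIs. These were PCR-amplified across the donor–target junction and sequenced after Escherichia coli carrying a donor and donor-binding-loop pair library and a target plasmid with T7-inducible IS621 bridge recombinase was plated on IPTG (0.07 mM) plus kanamycin or unselected. CPM were averaged over two replicates and scaled by control-derived factors.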
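Also: IS621 bridge recombinase in Escherichia coli cells against a fixed T5 target plasmid.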

**Q.** With “GTTAGAGCATGGACCGGTTTTCCCGGTAATCCGTATTTGCA (site GTTAGAGCTTG)” as the sequence, how does the “recombinant UMI read abundance (log10)” value read?
**A.** 3.02

**Q.** Which “recombinant UMI read abundance (log10)” value does the source give for “GTTAGAGCATGGACCGGTTTTCCCGGTAATCCGTATTTGCA (site GTTCGAGCTTG)” here?
**A.** 1.01

**Q.** With “GTTAGAGCATGGACCGGTTTTCCCGGTAATCCGTATTTGCA (site GTTGGAGCTTG)” as the sequence, how does the “recombinant UMI read abundance (log10)” value read?
**A.** 1.6

**Q.** With “GTTAGAGCATGGACCGGTTTTCCCGGTAATCCGTATTTGCA (site GTTTGAGCTTG)” as the sequence, how does the “recombinant UMI read abundance (log10)” value read?
**A.** 1.08

**Q.** Which “recombinant UMI read abundance (log10)” value does the source give for “GTTAGAGCATGGACCGGTTTTCCCGGTAATCCGTATTTGGG (site GTTAGAGCTCC)” here?
**A.** 0.089

**Q.** With “GTTAGCACATGGACCGGTTTTCCCGGTAATCCGTATTTGGC (site GTTAGAACTGC)” as the sequence, how does the “recombinant UMI read abundance (log10)” value read?
**A.** 0

**Q.** For “GTTAGCACATGGACCGGTTTTCCCGGTAATCCGTATTTGGC (site GTTAGCACTGC)”, which “recombinant UMI read abundance (log10)” value is on record?
**A.** 2.11

**Q.** With “GTTAGCACATGGACCGGTTTTCCCGGTAATCCGTATTTGGC (site GTTAGGACTGC)” as the sequence, how does the “recombinant UMI read abundance (log10)” value read?
**A.** 0.0382

**Q.** With “GTTAGCACATGGACCGGTTTTCCCGGTAATCCGTATTTGGC (site GTTAGTACTGC)” as the sequence, how does the “recombinant UMI read abundance (log10)” value read?
**A.** 0

**Q.** For “GTTAGTCCATGGACCGGTTTTCCCGGTAATCCGTATTTGAA (site GTTAGTCCTTT)”, which “recombinant UMI read abundance (log10)” value is on record?
**A.** 0.171

**Q.** For “GTTCAAGCATGGACCGGTTTTCCCGGTAATCCGTATTTGTC (site GTTCAAGCTGA)”, which “recombinant UMI read abundance (log10)” value is on record?
**A.** 1.84

**Q.** Which “recombinant UMI read abundance (log10)” value does the source give for “GTTCATGCATGGACCGGTTTTCCCGGTAATCCGTATTTGGT (site GTACATGCTAC)” here?
**A.** 0.216

**Q.** For “GTTCATGCATGGACCGGTTTTCCCGGTAATCCGTATTTGGT (site GTCCATGCTAC)”, which “recombinant UMI read abundance (log10)” value is on record?
**A.** 0.258

**Q.** Which “recombinant UMI read abundance (log10)” value does the source give for “GTTCATGCATGGACCGGTTTTCCCGGTAATCCGTATTTGGT (site GTGCATGCTAC)” here?
**A.** 0.477

**Q.** With “GTTCATGCATGGACCGGTTTTCCCGGTAATCCGTATTTGGT (site GTTCATGCTAC)” as the sequence, how does the “recombinant UMI read abundance (log10)” value read?
**A.** 0.717

**Q.** Which “recombinant UMI read abundance (log10)” value does the source give for “GTTCCCTCATGGACCGGTTTTCCCGGTAATCCGTATTTGTA (site GTTCCCTCTTA)” here?
**A.** 2.5

**Q.** Which “recombinant UMI read abundance (log10)” value does the source give for “GTTCCGACATGGACCGGTTTTCCCGGTAATCCGTATTTGTG (site GTTCCGACTCA)” here?
**A.** 0.0473

**Q.** For “GTTCCTTCATGGACCGGTTTTCCCGGTAATCCGTATTTGAC (site GTTCCTTCTGT)”, which “recombinant UMI read abundance (log10)” value is on record?
**A.** 0.671

**Q.** With “GTTCGAACATGGACCGGTTTTCCCGGTAATCCGTATTTGGT (site GTTCGAACTAC)” as the sequence, how does the “recombinant UMI read abundance (log10)” value read?
**A.** 0.225

**Q.** With “GTTCGAGCATGGACCGGTTTTCCCGGTAATCCGTATTTGCG (site GTTCGAGCTAG)” as the sequence, how does the “recombinant UMI read abundance (log10)” value read?
**A.** 0

**Q.** With “GTTCGAGCATGGACCGGTTTTCCCGGTAATCCGTATTTGCG (site GTTCGAGCTCG)” as the sequence, how does the “recombinant UMI read abundance (log10)” value read?
**A.** 1.39

**Q.** With “GTTCGAGCATGGACCGGTTTTCCCGGTAATCCGTATTTGCG (site GTTCGAGCTGG)” as the sequence, how does the “recombinant UMI read abundance (log10)” value read?
**A.** 0.838

**Q.** With “GTTCGAGCATGGACCGGTTTTCCCGGTAATCCGTATTTGCG (site GTTCGAGCTTG)” as the sequence, how does the “recombinant UMI read abundance (log10)” value read?
**A.** 1.23

**Q.** With “GTTCGAGCATGGACCGGTTTTCCCGGTAATCCGTATTTGTA (site GTTCGAGCTTA)” as the sequence, how does the “recombinant UMI read abundance (log10)” value read?
**A.** 1.9

**Q.** Which “recombinant UMI read abundance (log10)” value does the source give for “GTTCGAGCATGGACCGGTTTTCCCGGTAATCCGTATTTGTA (site GTTCGAGCTTC)” here?
**A.** 0.014

**Q.** Which “recombinant UMI read abundance (log10)” value does the source give for “GTTCGAGCATGGACCGGTTTTCCCGGTAATCCGTATTTGTA (site GTTCGAGCTTG)” here?
**A.** 0.543

**Q.** Which “recombinant UMI read abundance (log10)” value does the source give for “GTTCGAGCATGGACCGGTTTTCCCGGTAATCCGTATTTGTA (site GTTCGAGCTTT)” here?
**A.** 0.569

**Q.** With “GTTCGGACATGGACCGGTTTTCCCGGTAATCCGTATTTGTG (site GTTCGGACTCA)” as the sequence, how does the “recombinant UMI read abundance (log10)” value read?
**A.** 0.706

**Q.** For “GTTCTACCATGGACCGGTTTTCCCGGTAATCCGTATTTGCC (site GTTCTACCTGG)”, which “recombinant UMI read abundance (log10)” value is on record?
**A.** 0
